According to patent US11414377B2, “Modulator of metabotropic and ionotropic transmembrane receptors and use thereof” (IBD THERAPEUTICS LLC, priority 2018, dated 2022):

Assays:
male balb/c mice = experiment: Motility of the gastrointestinal tract in vivo (activated carbon transit); conditions: intact 73.8 ± 3.7
Method: The effect of Compound I on the motility of the GIT was studied by a standard procedure (Li Y. Y., Li Y. N., Ni J. B., Chen C. J., Lv S., Chai S. Y., Wu R. H., Yüce B., Storr M. Involvement of cannabinoid-1 and cannabinoid-2 receptors in septic ileus//Neurogastroenterol Motil. 2010. V. 22. P. 350-388). The study was carried out on male balb/c mice, the individual weight of which deviates from the mean value within the sex of no more than ±20%. The animals were given the intragastric administration of a solution of activated carbon (50 mg/ml, in 10 ml/kg) and the rate (in minutes) of the movement of the activated carbon on the intestine of animals was evaluated. Compounds I was administered once intragastrically 1 hour prior to administration of activated carbon. As the comparative preparations, hyoscin butyl bromide (Buscopan) at a dose of 3 mg/kg, trimebutine (Trimedat) at a dose of 33 mg/kg, mebeverine (Duspatalin) at a dose of 30 mg/kg were used. The obtained data were checked using the Grubb's test for the presence of the largest or smallest abnormal observation (ejection) in the sample. Values determined “to be eliminated” in this test were not used for further assay. For all data, descriptive statistics was used: a mean value (M) and standard error of the mean value (m) were counted up. The normality of distribution of the values obtained in the course of the experiment was checked with the aid of the Kolmogorov-Smirnov test. In the case of normal distribution, Student's t-test (t-test) was used to evaluate the inter-group distinctions. In the case of the distribution that is other than the normal one for the comparison of several groups, the Kruskall-Wallis test (with Dann's post hoc test) was used. Distinctions were determined at 5% at a level of confidence.

female balb/c mice = experiment: Oxazolone-induced inflammatory bowel disease model; format: in vivo; conditions: 10 mg/kg, 1, 25 and 49 hours after oxazolone, scored at 72 hours, control 2.00 ± 0.21
Method: The study of the activity of Compound I on the oxazolone-induced inflammatory bowel disease model (ulcerative Colitis and Crohn's disease model) was carried out by means of a standard procedure (Heller F., Fuss I. J., Nieuwenhuis E. E., Blumberg R. S., Strober W. Oxazolone colitis, a Th2 colitis model resembling ulcerative colitis, is mediated by IL-13-producing NK-T cells//Immunity. 2002. P. 629-638).
The study was carried out on female balb/c mice. A 3.5 F catheter was introduced into the large intestine to a depth of 3-4 cm. Then, 150 μl of 1% oxazolone solution in 50% ethanol was slowly introduced into the colon lumen, the catheter was slowly removed and the mouse was kept in a vertical position (upside down) for 60 seconds to avoid the introduced solution flowing-out. Experimental animals were returned to the cages and the animal was kept in the warm. Compound I was administered intragastrically, three times: 1 hour, 25 hours and 49 hours after the rectal administration of oxazolone. 72 hours later after the rectal administration of oxazolone, the macroscopic assessment of intestinal wall damage is carried out with the help of score scale: 0 points—no lesions, 1 point—hyperemia, no ulcers, 2 points—hyperemia and thickening of the intestinal wall, no ulcers, 3 points—one ulcer without thickening of the intestine wall, 4 points—2 or more of the site of ulceration or inflammation, 5 points—2 or more severe sites of ulcerations and inflammation, or one site of ulceration/inflammation affecting >1 cm in length of the intestine, 6-10 points—the lesion affects >2 cm in length of the intestine, the score increases by 1 point per each 1 cm that is damaged.
For all data, descriptive statistics is applied: the arithmetic mean (M) and the standard error of the mean (m) are counted up. The normality of distribution of the values obtained in the course of the experiment was checked with the aid of the Shapiro-Wilk test. […] Distinctions were determined at 5% at a level of confidence.

## CCN(CCCCOC(=O)c1ccc(OC)c(OC)c1)C(C)Cc1ccc(OC)cc1 (stereo not shown) [Mebeverine, mebeverine, reference compound]
Male balb/c mice; 30 mg/kg once intragastrically 1 hour prior to activated carbon
  The time of ejection of activated carbon: 114.5 ± 12.22 min

## C[C@]12C=CC(=O)C=C1CC[C@@H]1[C@@H]2[C@@H](O)C[C@@]2(C)[C@H]1CC[C@]2(O)C(=O)CO [Prednisolone, reference compound]
Female balb/c mice
  The degree of colon wall damage: 1.40 ± 0.37 points

## CCC(COC(=O)c1cc(OC)c(OC)c(OC)c1)(c1ccccc1)N(C)C (stereo not shown) [Trimebutine, trimebutine, reference compound]
Male balb/c mice; 33 mg/kg once intragastrically 1 hour prior to activated carbon
  The time of ejection of activated carbon: 110.8 ± 6.52 min

## CCCC[N+]1(C)[C@@H]2C[C@@H](OC(=O)[C@H](CO)c3ccccc3)C[C@H]1[C@@H]1O[C@@H]12 (stereo partly shown) [Hyoscine butyl bromide, hyoscin butyl bromide, reference compound]
Male balb/c mice; 3 mg/kg once intragastrically 1 hour prior to activated carbon
  The time of ejection of activated carbon: 87.6 ± 4.75 min
